Test results taken from patent publication US8304577B2, “Modulators of G protein-coupled receptor 88” (Bristol-Myers Squibb Company, priority 2009, dated 2012).

target: G protein-coupled receptor 88 (GPR88) (Homo sapiens, UniProt Q9GZN0); experiment: GPR88 functional assay: EC50 of Table 2 (GTPγS assay and cAMP HTRF assay described; table does not say which); assay type: cell-based; conditions: class symbol; read-out: Range (EC50)
Description: 96 well GTPγS assay plates were purchased from Perkin Elmer. Wheat Germ Agglutinin PVT SPA beads and ^35S-GTPγS were purchased from Amersham GDP, GTPγS and all buffer reagents were from Sigma. 384 well white NBS plates were purchased from corning. Pertussis toxin was purchased from Calbiochem. All cell culture reagents were purchased from Invitrogen. Forskolin was purchased from Sigma. The cAMP HTRF kit was purchased fron Cisbio International.
The GTPγS assay buffer consisted of 10 mM MgCl2, 180 mM NaCl, 200 uM GDP, 0.167 mg/mL DTT, 1 mM EGTA and 20 mM HEPES pH7.4. This buffer was used for dilution of membranes, beads, and ^35S GTPγS components. To each well of the 96 well assay plate 48 ul assay buffer, 2 ul of 100× compound, 50 ul membrane solution (0.2 ug/ul), 50 ul ^35S GTPγS solution (0.8 nM) and 50 ul of SPA beads (10 mg/mL). Non-specific binding was determined by the addition of cold GTPγS to control wells. The plates were sealed with clear sealing tape and incubated at room temperature for 1 hour. GTPγS activity was detected using a Wallac Micro-Beta Trilux liquid scintillation counter. Non-specific binding was determined using 10 uM cold GTPγS.
The cAMP HTRF assay is modified from the Cisbio International kit procedure 62AM4PEJ. Assay plates were prepared by stamping 0.1 ul of 100× compound stock solutions diluted in DMSO or DMSO alone into 384 well NBS plates. The cAMP HTRF assay was performed using cells in suspension. The cAMP HTRF assay buffer consisted of Hank's Balanced Salt Solution (HBSS), 2 mM CaCl2, 5 mM MgCl2, 20 mM HEPES and 1 mM 3-isobutyl-1-methylxanthine (IBMX) (added fresh at the time of assay). For pertussis toxin treatment pertussis toxin (100 ng/mL) was added to culture medium for 16 hours prior to assay. Confluent cells were disrupted with cell dissociation buffer count cells then centrifuged at 1000×g for 5 minutes. The cell pellet was resuspended in assay buffer alone for basal cAMP measurements or with 0.75 uM forskolin (added immediately prior to addition to wells) for addition to all other wells. Using a Multidrop 384 (Lab systems) 10 ul of cell suspension was added to each well containing compound or DMSO. The plates were incubated at room temperature for 30 minutes covered. During this time the cAMP standard curve was prepared as per manufacturer's instruction. At the end of the incubation 10 ul of anti-cAMP cryptate and 10 ul cAMP-XL, diluted in manufacturer's lysis buffer, were added to each well. The plated were incubated at room temperature for 60 minutes covered then read on an Envision plate reader (Perkin Elmer) and the 665 nm/620 nm fluorescence ratio determined Fluorescence ratio values were converted to molar cAMP concentrations from the standard curve using the GraphPad Prism program.

Sequence of G protein-coupled receptor 88 (GPR88) (Q9GZN0 whole entry, species assumed): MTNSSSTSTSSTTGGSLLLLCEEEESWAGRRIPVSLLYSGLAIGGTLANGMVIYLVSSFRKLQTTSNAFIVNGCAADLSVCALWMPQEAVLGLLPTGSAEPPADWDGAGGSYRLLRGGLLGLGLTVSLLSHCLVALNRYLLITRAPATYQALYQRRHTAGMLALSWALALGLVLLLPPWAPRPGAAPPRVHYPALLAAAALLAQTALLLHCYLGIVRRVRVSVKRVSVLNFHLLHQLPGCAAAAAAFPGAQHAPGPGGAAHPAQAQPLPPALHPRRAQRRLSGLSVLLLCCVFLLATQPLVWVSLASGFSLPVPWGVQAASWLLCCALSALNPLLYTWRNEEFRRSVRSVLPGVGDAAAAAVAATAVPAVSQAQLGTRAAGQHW

First: CCCC(C)COc1ccc(C(CN2CCN(C)CC2)NC(=O)[C@@H](C)c2ccccc2)cc1 (mixture of isomers) [Example 36, (2S)-N-(1-(4-(2-Methylpentyloxy)phenyl)-2-(4-methylpiperazin-1-yl)ethyl)-2-phenylpropanamide]
Second: CCCC(C)COc1ccc([C@H](CN(C)C)NC(=O)[C@@H](C)c2ccccc2)cc1 (stereo partly drawn) [Example 6, (2S)-N-((1R)-2-(Dimethylamino)-1-(4-(2-methylpentyloxy)phenyl)ethyl)-2-phenylpropanamide]
The EC50 of the first is higher: 100 to 200 nM for the first, 39 to 99 nM for the second.

`CCCC(C)COc1ccc([C@H](CO)NC(=O)[C@@H](CC)c2ccccc2)cc1` (stereo partly drawn) [Example 2, (2S)-N-((1R)-2-Hydroxy-1-(4-(2-methylpentyloxy)phenyl)ethyl)-2-phenylbutanamide] and `CCCC(C)COc1ccc([C@H](CO)NC(=O)[C@@H](CO)c2ccccc2)cc1` (stereo partly drawn) [Example 3, (2R)-3-Hydroxy-N-((1R)-2-hydroxy-1-(4-(2-methylpentyloxy)phenyl)ethyl)-2-phenylpropanamide] fall in the same range of EC50: 100 to 200 nM for the first, 100 to 200 nM for the second.

First: CCCC(C)COc1ccc([C@H](CNCC2CC2)NC(=O)[C@@H](C)c2ccccc2)cc1 (stereo partly drawn) [Example 7, (2S)-N-((1R)-2-(Cyclopropylmethylamino)-1-(4-(2-methylpentyloxy)phenyl)ethyl)-2-phenylpropanamide]
Second: CCCC(C)COc1ccc([C@H](CNCC2CCOC2)NC(=O)[C@@H](C)c2ccccc2)cc1 (stereo partly drawn) [Example 14, (2S)-N-((1R)-1-(4-(2-Methylpentyloxy)phenyl)-2-((tetrahydrofuran-3-yl)methylamino)ethyl)-2-phenylpropanamide]
The EC50 of the first is lower: 39 to 99 nM for the first, 100 to 200 nM for the second. The first is the more potent here.

`CCCC(C)COc1ccc([C@H](CNCC(C)CC)NC(=O)[C@@H](C)c2ccccc2)cc1` (stereo partly drawn) [Example 8, (2S)-N-((1R)-2-(2-Methylbutylamino)-1-(4-(2-methylpentyloxy)phenyl)ethyl)-2-phenylpropanamide] and `CCCC(C)COc1ccc([C@H](CNC[C@H](C)N)NC(=O)[C@@H](C)c2ccccc2)cc1` (stereo partly drawn) [Example 17, (2S)-N-((1R)-2-((S)-2-Aminopropylamino)-1-(4-(2-methylpentyloxy)phenyl)ethyl)-2-phenylpropanamide] fall in the same range of EC50: 100 to 200 nM for the first, 100 to 200 nM for the second.

`CCCC(C)COc1ccc([C@H](CNCc2ccncc2)NC(=O)[C@@H](C)c2ccccc2)cc1` (stereo partly drawn) [Example 9, (2S)-N-((1R)-1-(4-(2-Methylpentyloxy)phenyl)-2-(pyridin-4-ylmethylamino)ethyl)-2-phenylpropanamide] and `CCCC(C)COc1ccc([C@H](CNCc2cccnc2)NC(=O)[C@@H](C)c2ccccc2)cc1` (stereo partly drawn) [Example 13, (2S)-N-((1R)-1-(4-(2-Methylpentyloxy)phenyl)-2-(pyridin-3-ylmethylamino)ethyl)-2-phenylpropanamide] fall in the same range of EC50: 100 to 200 nM for the first, 100 to 200 nM for the second.

`CCCC(C)COc1ccc([C@H](CNCc2cc[nH]n2)NC(=O)[C@@H](C)c2ccccc2)cc1` (stereo partly drawn) [Example 11, (2S)-N-((1R)-2-((1H-Pyrazol-3-yl)methylamino)-1-(4-(2-methylpentyloxy)phenyl)ethyl)-2-phenylpropanamide] and `CCCC(C)COc1ccc([C@H](CNCc2c[nH]c3ccccc23)NC(=O)[C@@H](C)c2ccccc2)cc1` (stereo partly drawn) [Example 12, (2S)-N-((1R)-2-((1H-Indol-3-yl)methylamino)-1-(4-(2-methylpentyloxy)phenyl)ethyl)-2-phenylpropanamide] fall in the same range of EC50: 100 to 200 nM for the first, 100 to 200 nM for the second.

`CCCC(C)COc1ccc([C@H](CNCC2(N)CCCC2)NC(=O)[C@@H](C)c2ccccc2)cc1` (stereo partly drawn) [Example 15, (2S)-N-((1R)-2-((1-Aminocyclopentyl)methylamino)-1-(4-(2-methylpentyloxy)phenyl)ethyl)-2-phenylpropanamide] and `CCCC(C)COc1ccc([C@H](CNC(=O)[C@H](C)N)NC(=O)[C@@H](C)c2ccccc2)cc1` (stereo partly drawn) [Example 23, (2S)-2-Amino-N-((2R)-2-(4-(2-methylpentyloxy)phenyl)-2-((S)-2-phenylpropanamido)ethyl)propanamide] fall in the same range of EC50: 39 to 99 nM for the first, 39 to 99 nM for the second.

`CCCC(C)COc1ccc([C@H](CNC(=O)[C@@H](N)[C@@H](C)CC)NC(=O)[C@@H](C)c2ccccc2)cc1` (stereo partly drawn) [Example 19, (2S,3S)-2-Amino-3-methyl-N-((2R)-2-(4-(2-methylpentyloxy)phenyl)-2-((S)-2-phenylpropanamido)ethyl)pentanamide] and `CCCC(C)COc1ccc([C@H](CNC(=O)[C@H](N)[C@H](C)CC)NC(=O)[C@@H](C)c2ccccc2)cc1` (stereo partly drawn) [Example 22, (2R,3R)-2-Amino-3-methyl-N-((2R)-2-(4-(2-methylpentyloxy)phenyl)-2-((S)-2-phenylpropanamido)ethyl)pentanamide] fall in the same range of EC50: 39 to 99 nM for the first, 39 to 99 nM for the second.

`CCCC(C)COc1ccc([C@H](CNC(=O)[C@H](N)CC(C)C)NC(=O)[C@@H](C)c2ccccc2)cc1` (stereo partly drawn) [Example 20, (2R)-2-Amino-4-methyl-N-((2R)-2-(4-(2-methylpentyloxy)phenyl)-2-((S)-2-phenylpropanamido)ethyl)pentanamide] and `CCCC(C)COc1ccc([C@H](CNC(=O)[C@@H](N)C(C)C)NC(=O)[C@@H](C)c2ccccc2)cc1` (stereo partly drawn) [Example 24, (2S)-2-Amino-3-methyl-N-((2R)-2-(4-(2-methylpentyloxy)phenyl)-2-((S)-2-phenylpropanamido)ethyl)butanamide] fall in the same range of EC50: 39 to 99 nM for the first, 39 to 99 nM for the second.

`CCCC(C)COc1ccc([C@H](CNC(=O)[C@@H](N)CC)NC(=O)[C@@H](C)c2ccccc2)cc1` (stereo partly drawn) [Example 25, (2S)-2-Amino-N-((2R)-2-(4-(2-methylpentyloxy)phenyl)-2-((S)-2-phenylpropanamido)ethyl)butanamide] and `CCCC(C)COc1ccc([C@H](CNC(=O)[C@@H](N)CCC)NC(=O)[C@@H](C)c2ccccc2)cc1` (stereo partly drawn) [Example 26, (2S)-2-Amino-N-((2R)-2-(4-(2-methylpentyloxy)phenyl)-2-((S)-2-phenylpropanamido)ethyl)pentanamide] fall in the same range of EC50: 39 to 99 nM for the first, 39 to 99 nM for the second.

`CCCC(C)COc1ccc([C@H](CNC(=O)[C@@H](N)[C@H](C)CC)NC(=O)[C@@H](C)c2ccccc2)cc1` (stereo partly drawn) [Example 27, (2S,3R)-2-Amino-3-methyl-N-((2R)-2-(4-(2-methylpentyloxy)phenyl)-2-((S)-2-phenylpropanamido)ethyl)pentanamide] and `CCCC(C)COc1ccc([C@H](CNC(=O)[C@@H](C)N)NC(=O)[C@@H](C)c2ccccc2)cc1` (stereo partly drawn) [Example 29, (2R)-2-Amino-N-((2R)-2-(4-(2-methylpentyloxy)phenyl)-2-((S)-2-phenylpropanamido)ethyl)propanamide] fall in the same range of EC50: 100 to 200 nM for the first, 100 to 200 nM for the second.

`CCCC(C)COc1ccc([C@H](CNC(=O)[C@@H](N)CC2CC2)NC(=O)[C@@H](C)c2ccccc2)cc1` (stereo partly drawn) [Example 28, (2S)-2-Amino-3-cyclopropyl-N-((2R)-2-(4-(2-methylpentyloxy)phenyl)-2-((S)-2-phenylpropanamido)ethyl)propanamide] gave an EC50 of 100 to 200 nM.

same assay, conditions: exact value given; read-out: Range (EC50)

First: CCCC(C)COc1ccc([C@H](CN)NC(=O)[C@@H](C)c2ccccc2)cc1 (stereo partly drawn) [Example 5, (2S)-N-((1R)-2-Amino-1-(4-(2-methylpentyloxy)phenyl)ethyl)-2-phenylpropanamide]
Second: CCCC(C)COc1ccc([C@H](CNC[C@@H]2CCCN2)NC(=O)[C@@H](C)c2ccccc2)cc1 (stereo partly drawn) [Example 16, (2S)-N-((1R)-1-(4-(2-Methylpentyloxy)phenyl)-2-((S)-pyrrolidin-2-ylmethylamino)ethyl)-2-phenylpropanamide]
The EC50 of the first is 1.9-fold lower: 54 nM for the first, 100 nM for the second.

`CCCC(C)COc1ccc([C@H](CNCc2ccccn2)NC(=O)[C@@H](C)c2ccccc2)cc1` (stereo partly drawn) [Example 10, (2S)-N-((1R)-1-(4-(2-Methylpentyloxy)phenyl)-2-(pyridin-2-ylmethylamino)ethyl)-2-phenylpropanamide] and `CCCC(C)COc1ccc([C@H](CNC[C@H]2CCCN2)NC(=O)[C@@H](C)c2ccccc2)cc1` (stereo partly drawn) [Example 18, (2S)-N-((1R)-1-(4-(2-Methylpentyloxy)phenyl)-2-((R)-pyrrolidin-2-ylmethylamino)ethyl)-2-phenylpropanamide] are within 1.5-fold of each other in EC50: 110 nM for the first, 154 nM for the second.

In the case of `CCCC(C)COc1ccc([C@H](CNC(=O)[C@@H]2CCCN2)NC(=O)[C@@H](C)c2ccccc2)cc1` (stereo partly drawn) [Example 21, (2S)-N-((2R)-2-(4-(2-Methylpentyloxy)phenyl)-2-((S)-2-phenylpropanamido)ethyl)pyrrolidine-2-carboxamide], the EC50 is reported as 89 nM.
